From patent US9206130B2, “Quinoline derivatives as AXL kinase inhibitors” (Max-Planck-Gesellschaft zur Förderung der Wissenschaften …, priority 2008, dated 2015)

Tests used:
[1] = target: T1, wild type AXL (wtAXL) receptor tyrosine kinase (Homo sapiens, UniProt P30530); assay: NIH-3T3-AXL cellular tyrosine kinase assay (inhibition of AXL phosphorylation); format: cell-based; settings: AXL phosphorylation in NIH-3T3-AXL (clone 22) cells, serum-depleted, 2 h with compound, immunoprecipitation / anti-phosphotyrosine blot
T1 construct: WtAXL cDNA was cloned into vector pLXSN(ESK) and transfected into Phoenix E packaging cells; expressed in transfected cells; host or cells: NIH3T3 N7 mouse fibroblasts, retrovirally infected (clone 22)
T1 sequence (P30530 26-894): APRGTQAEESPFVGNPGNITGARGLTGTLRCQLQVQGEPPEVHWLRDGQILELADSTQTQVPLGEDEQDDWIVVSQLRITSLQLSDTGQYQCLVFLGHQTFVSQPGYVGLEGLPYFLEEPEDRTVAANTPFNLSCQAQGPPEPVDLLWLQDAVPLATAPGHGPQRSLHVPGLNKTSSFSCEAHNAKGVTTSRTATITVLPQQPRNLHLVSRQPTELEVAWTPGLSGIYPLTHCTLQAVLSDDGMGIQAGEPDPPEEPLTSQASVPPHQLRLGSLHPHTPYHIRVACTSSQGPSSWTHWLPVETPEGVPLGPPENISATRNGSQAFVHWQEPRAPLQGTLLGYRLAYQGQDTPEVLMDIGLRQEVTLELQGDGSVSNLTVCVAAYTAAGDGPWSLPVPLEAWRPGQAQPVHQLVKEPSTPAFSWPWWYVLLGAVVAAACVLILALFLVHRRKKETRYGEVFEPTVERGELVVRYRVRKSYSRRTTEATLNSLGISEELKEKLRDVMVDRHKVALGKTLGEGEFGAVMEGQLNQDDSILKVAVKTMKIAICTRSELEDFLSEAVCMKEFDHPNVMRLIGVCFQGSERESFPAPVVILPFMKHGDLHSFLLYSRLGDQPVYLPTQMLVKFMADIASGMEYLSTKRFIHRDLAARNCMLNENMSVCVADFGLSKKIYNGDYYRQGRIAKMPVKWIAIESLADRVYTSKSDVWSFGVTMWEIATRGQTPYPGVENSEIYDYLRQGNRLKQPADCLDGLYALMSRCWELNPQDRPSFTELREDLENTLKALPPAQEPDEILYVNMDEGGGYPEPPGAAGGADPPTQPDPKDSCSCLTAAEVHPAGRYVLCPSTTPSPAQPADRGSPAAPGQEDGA
Outline: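 Compound inhibition of AXL autophosphorylation was read by 4G10 immunoblot after anti-AXL immunoprecipitation from lysates. Cells: NIH3T3 lines stably carrying retroviral wild-type human AXL, treated 2 h with compound dilution series.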

| SMILES | IC50 [1] [µM] | melting point [°C] |
| --- | --- | --- |
| COc1cc2nccc(Oc3ccc(NS(=O)(=O)c4csc5ccccc45)cc3)c2cc1OC [Example A84, Benzo[b]thiophene-3-sulfonic acid [4-(6,7-dimethoxy-quinolin-4-yloxy)-phenyl]-amide] | > 3 | 267 to 270 |
| COc1cc2nccc(Oc3ccc(NS(=O)(=O)c4ccc5c(c4)CC(=O)N5C)cc3)c2cc1OC [Example A85, 1-Methyl-2-oxo-2,3-dihydro-1H-indole-5-sulfonic acid [4-(6,7-dimethoxy-quinolin-4-yloxy)-phenyl]-amide] | > 3 | 119 to 122 |
| COc1cc2nccc(Oc3ccc(NS(=O)(=O)c4cccc(-c5ccccc5)c4)cc3)c2cc1OC [Example A86, Biphenyl-3-sulfonic acid [4-(6,7-dimethoxy-quinolin-4-yloxy)-phenyl]-amide] | > 1 | 197 to 200 |
| COc1ccc(S(=O)(=O)Nc2ccc(Oc3ccnc4cc(OC)c(OC)cc34)cc2F)cc1F [Example A88, N-[4-(6,7-Dimethoxy-quinolin-4-yloxy)-2-fluoro-phenyl]-3-fluoro-4-methoxy-benzenesulfonamide] | > 1 | 230 to 232 |
| COc1cc2nccc(Oc3ccc(NS(=O)(=O)c4cccc(-c5ccccc5)c4)c(C)c3)c2cc1OC [Example A89, Biphenyl-3-sulfonic acid [4-(6,7-dimethoxy-quinolin-4-yloxy)-2-methyl-phenyl]-amide] | 0.45 | 220 to 222 |
| COc1cc2nccc(Oc3ccc(NS(=O)(=O)c4cccc(Oc5ccccc5)c4)c(C)c3)c2cc1OC [Example A90, N-[4-(6,7-Dimethoxy-quinolin-4-yloxy)-2-methyl-phenyl]-3-phenoxy-benzenesulfonamide] | > 10 | 169 to 170 |
| COc1cc2nccc(Oc3ccc(NS(=O)(=O)c4cccc5ccccc45)c(C)c3)c2cc1OC [Example A91, Naphthalene-1-sulfonic acid [4-(6,7-dimethoxy-quinolin-4-yloxy)-2-methyl-phenyl]-amide] | > 10 | 233 to 235 |
| COc1cc2nccc(Oc3ccc(NS(=O)(=O)c4ccc(-c5ccccc5)cc4)c(C)c3)c2cc1OC [Example A92, Biphenyl-4-sulfonic acid [4-(6,7-dimethoxy-quinolin-4-yloxy)-2-methyl-phenyl]-amide] | > 10 | 228 to 230 |
| COc1cc2nccc(Oc3ccc(NS(=O)(=O)c4cccc(-c5ncccn5)c4)c(C)c3)c2cc1OC [Example A93, N-[4-(6,7-Dimethoxy-quinolin-4-yloxy)-2-methyl-phenyl]-3-pyrimidin-2-yl-benzenesulfonamide] | > 3 | 103 to 105 |
| COc1cc2nccc(Oc3ccc(NS(=O)(=O)c4cc5ccccc5s4)c(C)c3)c2cc1OC [Example A94, Benzo[b]thiophene-2-sulfonic acid [4-(6,7-dimethoxy-quinolin-4-yloxy)-2-methyl-phenyl]-amide] | > 10 | 255 to 257 |
| COc1cc2nccc(Oc3ccc(NS(=O)(=O)c4ccc5c(c4)CC(=O)N5C)c(C)c3)c2cc1OC [Example A95, 1-Methyl-2-oxo-2,3-dihydro-1H-indole-5-sulfonic acid [4-(6,7-dimethoxy-quinolin-4-yloxy)-2-methyl-phenyl]-amide] | > 10 | 115 to 116 |
| COc1cc2nccc(Oc3ccc(NS(=O)(=O)c4cccc(-c5ccccc5)c4)cc3F)c2cc1OC [Example A97, Biphenyl-3-sulfonic acid [4-(6,7-dimethoxy-quinolin-4-yloxy)-3-fluoro-phenyl]-amide] | 0.54 | 109 to 111 |
| COc1cc2nccc(Oc3ccc(NS(=O)(=O)c4cccc(Oc5ccccc5)c4)cc3F)c2cc1OC [Example A98, N-[4-(6,7-Dimethoxy-quinolin-4-yloxy)-3-fluoro-phenyl]-3-phenoxy-benzenesulfonamide] | 0.74 | 197 to 199 |
| COc1cc2nccc(Oc3ccc(NS(=O)(=O)c4cc(F)ccc4F)cc3F)c2cc1OC [Example A99, N-[4-(6,7-Dimethoxy-quinolin-4-yloxy)-3-fluoro-phenyl]-2,5-difluoro-benzenesulfonamide] | 0.18 | 232 to 234 |
| COc1cc2nccc(Oc3ccc(NS(=O)(=O)c4cccc5ccccc45)cc3F)c2cc1OC [Example A100, Naphthalene-1-sulfonic acid [4-(6,7-dimethoxy-quinolin-4-yloxy)-3-fluoro-phenyl]-amide] | 0.74 | 118 to 120 |
| COc1cc2nccc(Oc3ccc(NS(=O)(=O)c4cccc(-c5ncccn5)c4)cc3F)c2cc1OC [Example A101, N-[4-(6,7-Dimethoxy-quinolin-4-yloxy)-3-fluoro-phenyl]-3-pyrimidin-2-yl-benzenesulfonamide] | > 1 | 105 to 107 |
| COc1cc2nccc(Oc3ccc(NS(=O)(=O)c4cccc(-c5ncccn5)c4)c(F)c3)c2cc1OC [Example A102, N-[4-(6,7-Dimethoxy-quinolin-4-yloxy)-2-fluoro-phenyl]-3-pyrimidin-2-yl-benzenesulfonamide] | > 1 | 137 to 140 |
| COc1cc2nccc(Oc3ccc(NS(=O)(=O)c4cc(Cl)cc(Cl)c4OC)cc3F)c2cc1OC [Example A106, 3,5-Dichloro-N-[4-(6,7-dimethoxy-quinolin-4-yloxy)-3-fluoro-phenyl]-2-methoxy-benzenesulfonamide] | 0.75 | 155 to 158 |

Second part, the compound after the results:

| IC50 [1] [µM] | melting point [°C] | SMILES |
| --- | --- | --- |
| > 10 | 167 to 171 | COc1cc2nccc(Oc3ccc(NS(=O)(=O)c4ccc(-c5ccccc5)cc4)cc3F)c2cc1OC [Example A107, Biphenyl-4-sulfonic acid [4-(6,7-dimethoxy-quinolin-4-yloxy)-3-fluoro-phenyl]-amide] |
| > 1 | 191 to 193 | COc1cc2nccc(Oc3ccc(NS(=O)(=O)c4csc5ccccc45)cc3F)c2cc1OC [Example A108, Benzo[b]thiophene-3-sulfonic acid [4-(6,7-dimethoxy-quinolin-4-yloxy)-3-fluoro-phenyl]-amide] |
| > 1 | 202 to 204 | COc1cc(S(=O)(=O)Nc2ccc(Oc3ccnc4cc(OC)c(OC)cc34)c(F)c2)ccc1F [Example A109, N-[4-(6,7-Dimethoxy-quinolin-4-yloxy)-3-fluoro-phenyl]-4-fluoro-3-methoxy-benzenesulfonamide] |
| 1.18 | 99 to 101 | COc1cc2nccc(Oc3ccc(NS(=O)(=O)c4ccc(Cl)cc4F)cc3F)c2cc1OC [Example A110, 4-Chloro-N-[4-(6,7-dimethoxy-quinolin-4-yloxy)-3-fluoro-phenyl]-2-fluoro-benzenesulfonamide] |
| > 3 | 159 to 162 | COc1cc2nccc(Oc3ccc(NS(=O)(=O)c4cc(Cl)cc(Cl)c4OC)c(C)c3)c2cc1OC [Example A111, 3,5-Dichloro-N-[4-(6,7-dimethoxy-quinolin-4-yloxy)-2-methyl-phenyl]-2-methoxy-benzenesulfonamide] |
| > 3 | 230 to 232 | COc1cc2nccc(Oc3ccc(NS(=O)(=O)c4ccccc4OC(F)(F)F)c(C)c3)c2cc1OC [Example A112, N-[4-(6,7-Dimethoxy-quinolin-4-yloxy)-2-methyl-phenyl]-2-trifluoromethoxy-benzenesulfonamide] |
| > 3 | 254 to 257 | COc1cc2nccc(Oc3ccc(NS(=O)(=O)c4ccccc4C(F)(F)F)c(C)c3)c2cc1OC [Example A113, N-[4-(6,7-Dimethoxy-quinolin-4-yloxy)-2-methyl-phenyl]-2-trifluoromethyl-benzenesulfonamide] |
| 0.47 | 222 to 223 | COc1cc2nccc(Oc3ccc(NS(=O)(=O)c4ccccc4OC(F)(F)F)cc3)c2cc1OC [Example A114, N-[4-(6,7-Dimethoxy-quinolin-4-yloxy)-phenyl]-2-trifluoromethoxy-benzenesulfonamide] |
| 1.26 | 172 to 174 | COc1cc2nccc(Oc3ccc(NS(=O)(=O)c4cccc(Oc5ccccc5)c4)cc3)c2cc1OC [Example A115, N-[4-(6,7-Dimethoxy-quinolin-4-yloxy)-phenyl]-3-phenoxy-benzenesulfonamide] |
